Laboratory results taken from article PMC9401600 (Chemmedchem, 2022).

Experiments:
G9a [1] = target: T1, G9a (Homo sapiens, UniProt Q96KQ7); design: method as in PMID 31141392, PMID 31276898, PMID 29890830, PMID 33661013, PMID 30753076; details: previously reported, dependent on the assay conditions used; cited from earlier work
T1 construct: purchased BPS Bioscience 52051
T1 sequence (Q96KQ7 1-1210): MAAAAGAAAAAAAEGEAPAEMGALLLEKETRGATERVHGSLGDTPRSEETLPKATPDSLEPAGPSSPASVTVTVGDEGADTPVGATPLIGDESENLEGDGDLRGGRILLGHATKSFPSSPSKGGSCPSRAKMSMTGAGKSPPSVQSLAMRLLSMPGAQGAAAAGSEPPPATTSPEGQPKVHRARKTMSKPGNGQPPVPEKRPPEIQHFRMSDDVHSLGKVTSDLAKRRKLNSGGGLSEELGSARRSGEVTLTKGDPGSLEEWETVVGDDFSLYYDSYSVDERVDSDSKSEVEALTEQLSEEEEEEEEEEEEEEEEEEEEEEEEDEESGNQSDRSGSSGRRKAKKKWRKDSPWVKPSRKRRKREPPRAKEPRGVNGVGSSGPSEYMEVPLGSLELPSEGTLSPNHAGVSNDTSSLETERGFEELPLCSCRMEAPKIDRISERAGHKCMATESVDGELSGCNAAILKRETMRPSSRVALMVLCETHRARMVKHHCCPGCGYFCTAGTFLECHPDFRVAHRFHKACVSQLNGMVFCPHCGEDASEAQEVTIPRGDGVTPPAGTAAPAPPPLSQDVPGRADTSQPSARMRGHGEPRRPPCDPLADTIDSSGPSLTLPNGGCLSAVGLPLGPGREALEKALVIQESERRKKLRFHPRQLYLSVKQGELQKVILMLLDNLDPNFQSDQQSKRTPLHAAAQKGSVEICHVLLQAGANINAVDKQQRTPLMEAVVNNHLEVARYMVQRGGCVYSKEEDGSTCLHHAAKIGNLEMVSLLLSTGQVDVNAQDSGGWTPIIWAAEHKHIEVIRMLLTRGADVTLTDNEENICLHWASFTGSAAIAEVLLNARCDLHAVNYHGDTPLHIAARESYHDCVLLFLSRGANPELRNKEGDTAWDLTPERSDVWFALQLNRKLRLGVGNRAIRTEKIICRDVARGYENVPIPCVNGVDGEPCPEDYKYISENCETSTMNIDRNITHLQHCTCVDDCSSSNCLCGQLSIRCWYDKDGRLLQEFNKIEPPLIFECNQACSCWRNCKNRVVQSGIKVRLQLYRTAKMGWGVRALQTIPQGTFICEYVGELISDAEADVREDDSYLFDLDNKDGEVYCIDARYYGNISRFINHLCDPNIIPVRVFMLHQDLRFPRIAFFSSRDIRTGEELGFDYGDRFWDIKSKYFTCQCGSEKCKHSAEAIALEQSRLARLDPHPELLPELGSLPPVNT

PAMPA‐BBB assay = format: in vitro ADME; details: pig, PAMPA; PBS:EtOH (70 : 30); values as printed in text; read-out: in vitro permeability (Pe), PAMPA‐BBB
Experimental: To evaluate the brain penetration of the different compounds, a parallel artificial membrane permeation assay for BBB was used, following the method described by Di et al..[33] The in vitro Pe of fourteen commercial drugs through lipid extract of porcine brain membrane together with the test compounds were determined. Commercial drugs and assayed compounds were tested using a mixture of PBS:EtOH (70 : 30).

[2] = system: Aβ deposits in CL2006 strain; experiment: Thioflavin‐S staining of Aβ aggregation; format: in vivo, Caenorhabditis elegans; details: head region, after 5 days of treatment, compared to the vehicle group
Experimental: The transgenic AD strain CL2006 is characterized by the expression of human Aβ1‐42 under the control of a muscle‐specific promoter, making it suitable to answer this objective in our work. As we mentioned above, UNC0638 was used as a positive control. […] After 5 days of treatment, adult CL2006 C. elegans were fixed in 4 % Paraformaldehyde/Phosphate‐buffered saline (PBS) (pH 7.5), for 24 hours at 4 °C. […] On the last day, nematodes were stained with 0.125 % Thioflavin‐S (ThS) (Sigma, CAS# 1326–12‐1) in 50 % ethanol (EtOH) for 2 min, destained in 50 % EtOH for 2 min, washed 3 times with PBS. To prepare the glass slide for microscopy, approximately 10 μL volume was transferred on a droplet of Fluoromount G (Electron Microscopy Sciences, CAT#17984‐25). Fluorescence images were acquired using a 20 Å∼ objective of a fluorescence microscope. Aβ in the head region of worms were quantified by counting the number of Th−S positive spots using ImageJ and were expressed as Aβ deposits/anterior area.

G9a [3] = target: T1, G9a; experiment: G9a Homogeneous Assay Kit (AlphaLISA) G9a inhibition; format: biochemical
Experimental: The percentages of G9a activity for the 10 selected molecules were determined at 100 μM S‐adenosylmethionine (SAM) and peptide substrate using AlphaLISA® technology. These percentages were used to calculate the IC50.
G9a inhibitors were serially diluted between 5 nM and 0.001 nM in 100 % DMSO (Sigma, St. Louis, USA). Then, respective concentrations were subsequently diluted in MilliQ purified water to reach a final concentration ranging between 50 and 0.001 μM in 1 % DMSO in well.
Briefly, a sample containing the G9a enzyme is incubated with the biotinylated substrate plus inhibitor solution for two hours. Next, acceptor beads and primary antibody is added, followed by donor beads. Finally, the Alpha‐counts were read using an AlphaScreen microplate reader. The experiment was run per triplicate. G9aactivity(%)=(C-Cb)/(Ct-Cb)x100
Ct=The chemiluminescence reading in the absence of the compound. The data set here is defined as 100 % activity in the absence of the compound.
Cb=The chemiluminescence reading in absence of enzyme. The data set here is defined as 0 % activity in the absence of the enzyme.
C=The chemiluminescence reading in the presence of the compound.
Data analysis was conducted using GraphPad Prism ver. 9 statistical software. The statistical outliers were identified with Grubb's test and excluded from the analysis. Group comparisons were carried out with a One‐way Analysis of variance (ANOVA), followed by the Dunnett post hoc test. In some cases, comparison between groups was also performed by unpaired t‐test or One‐way ANOVA, followed by Fisher's LSD post hoc test. For the calculation of IC50, non‐linear regressions were performed. […] Values are shown as the mean ± Standard error of the mean (SEM) of at least n=3. Statistical significance was considered when p values were <0.05.

O=C1c2ccccc2-c2onc3c(N4CCCC4)cc(NCCN4CCCC4)c1c23 [Compound 7]
IC50 (G9a [1]): 1.2 µM

COc1cc2c(cc1OC)-c1c(C)c3cc(OC)c(OC)cc3c[n+]1CC2 [Compound 8, pseudodehydrocorydaline]
IC50 (G9a [1]): 16.3 µM

COc1cc2c(NC3CCN(C(C)C)CC3)nc(C3CCCCC3)nc2cc1OCCCN1CCCC1 [UNC0638, reference compound]
Papp (PAMPA‐BBB assay): 6.2 ×10⁻⁶ cm/s
reduction of Aβ deposition (Thioflavin S‐positive particles) [2]: approximately 25%
% G9a activity (G9a [3]; 0.0001 µM, first data set of Table S2): 36.4%
% G9a activity (G9a [3]; 0.0001 µM, second data set of Table S2): 37.2%
% G9a activity (G9a [3]; 0.0001 µM, third data set of Table S2): 36.8%
% G9a activity (G9a [3]; 0.001 µM, first data set of Table S2): 34.1%
% G9a activity (G9a [3]; 0.001 µM, second data set of Table S2): 35.7%
% G9a activity (G9a [3]; 0.001 µM, third data set of Table S2): 34.9%
% G9a activity (G9a [3]; 0.01 µM, first data set of Table S2): 17.0%
% G9a activity (G9a [3]; 0.01 µM, second data set of Table S2): 15.3%
% G9a activity (G9a [3]; 0.01 µM, third data set of Table S2): 16.1%
% G9a activity (G9a [3]; 0.1 µM, first data set of Table S2): 7.9%
% G9a activity (G9a [3]; 0.1 µM, second data set of Table S2): 6.8%
% G9a activity (G9a [3]; 0.1 µM, third data set of Table S2): 7.0%
% G9a activity (G9a [3]; 1 µM, first data set of Table S2): 5.2%
% G9a activity (G9a [3]; 1 µM, second data set of Table S2): 5.8%
% G9a activity (G9a [3]; 1 µM, third data set of Table S2): 6.3%
% G9a activity (G9a [3]; 10 µM, first data set of Table S2): 1.9%
% G9a activity (G9a [3]; 10 µM, second data set of Table S2): 2.6%
% G9a activity (G9a [3]; 10 µM, third data set of Table S2): 1.9%
% G9a activity (G9a [3]; 50 µM, first data set of Table S2): 0.1%
% G9a activity (G9a [3]; 50 µM, second data set of Table S2): 0.7%
% G9a activity (G9a [3]; 50 µM, third data set of Table S2): 0.3%
